Earlier results in US20050095286A1, “Extended release compositions” (Fabre Kramer Pharmaceuticals, Inc., priority 2003, published 2005).

How the values were obtained:
[1] = molecular target: T1, 5HT1a-receptors (Homo sapiens, UniProt P08908); conditions: background statement
T1 sequence (P08908 1-422): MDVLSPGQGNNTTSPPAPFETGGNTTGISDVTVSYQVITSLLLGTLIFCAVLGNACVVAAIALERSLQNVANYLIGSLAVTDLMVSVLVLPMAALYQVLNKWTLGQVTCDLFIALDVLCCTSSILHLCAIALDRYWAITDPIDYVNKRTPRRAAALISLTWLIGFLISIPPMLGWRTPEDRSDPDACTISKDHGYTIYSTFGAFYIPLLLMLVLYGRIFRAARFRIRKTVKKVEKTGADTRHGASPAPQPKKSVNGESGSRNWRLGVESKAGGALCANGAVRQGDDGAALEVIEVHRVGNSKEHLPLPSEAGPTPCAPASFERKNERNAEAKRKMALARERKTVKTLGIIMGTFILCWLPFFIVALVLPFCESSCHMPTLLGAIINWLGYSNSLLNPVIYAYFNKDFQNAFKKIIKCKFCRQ

[2] = background statement
[3] = molecular target: D2-receptor binding sites (Homo sapiens, UniProt P14416); conditions: background statement, U.S. Pat. No. 5,010,078
[4] = molecular target: T2, 5-HT1A receptor binding sites (Homo sapiens, UniProt P08908); conditions: background statement, U.S. Pat. No. 5,010,078
T2 sequence (P08908 1-422): T1 sequence (P08908 1-422)

D2-receptor binding sites, sequence (P14416 whole entry): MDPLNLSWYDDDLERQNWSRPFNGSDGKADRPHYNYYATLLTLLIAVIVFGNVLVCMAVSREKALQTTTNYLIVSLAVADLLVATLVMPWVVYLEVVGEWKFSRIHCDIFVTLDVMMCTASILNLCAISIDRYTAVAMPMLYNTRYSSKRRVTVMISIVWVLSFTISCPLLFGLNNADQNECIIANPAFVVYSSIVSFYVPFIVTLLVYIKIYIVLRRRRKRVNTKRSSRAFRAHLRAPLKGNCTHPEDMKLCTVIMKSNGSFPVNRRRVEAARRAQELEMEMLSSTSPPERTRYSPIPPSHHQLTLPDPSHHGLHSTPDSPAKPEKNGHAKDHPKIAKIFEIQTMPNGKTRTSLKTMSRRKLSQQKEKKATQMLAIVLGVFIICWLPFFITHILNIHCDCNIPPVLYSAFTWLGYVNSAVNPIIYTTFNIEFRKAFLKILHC

| SMILES | affinity to 5HT1a-receptors [1] | therapeutic index [2] | affinity for the D2-receptor binding site [3] | affinity for the 5-HT1A receptor binding site [4] | selectivity at the 5-HT1A and 5-HT2 versus D2 receptor binding sites [4] |
| --- | --- | --- | --- | --- | --- |
| Cl.O=c1c(CO)coc2cc(OCCCN3CCC(c4noc5cc(F)ccc45)CC3)ccc12 [abaperidone] | high affinity | high therapeutic index | – | – | – |
| O=C(NCCN1CCN(c2ncccn2)CC1)[C@]12C[C@H]3C[C@@H](C[C@H](C3)C1)C2 [adatanserin] | – | – | high affinity | high affinity | demonstrated selectivity |
